Assay results as given in PubChem BioAssay (NCI).
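1) Cells in 96-well plates. 2) Compound, 48 h, 5 concentrations. 3) Linear interpolation between surrounding doses. 4) Unreached endpoint = highest concentration. Definition used: TGI = concentration required for complete inhibition of growth.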

Columns and labels:
Experiment in all cases: NCI tumour cell line growth inhibition, 48 h
KM12 colon = test system: KM12 colon
EKVX NSCLC = test system: EKVX NSCLC
HCT-116 colon = test system: HCT-116 colon
COLO 205 colon = test system: COLO 205 colon
SW-620 colon = test system: SW-620 colon
A549 NSCLC = test system: A549 NSCLC
SK-MEL-28 melanoma = test system: SK-MEL-28 melanoma
RXF 393 renal = test system: RXF 393 renal
BT-549 breast = test system: BT-549 breast
K-562 leukemia = test system: K-562 leukemia
OVCAR-5 ovarian = test system: OVCAR-5 ovarian
OVCAR-8 ovarian = test system: OVCAR-8 ovarian
PC-3 prostate = test system: PC-3 prostate
CAKI-1 renal = test system: CAKI-1 renal
RPMI-8226 leukemia = test system: RPMI-8226 leukemia
SR leukemia = test system: SR leukemia
HT29 colon = test system: HT29 colon
SK-MEL-5 melanoma = test system: SK-MEL-5 melanoma
NCI-H226 lung = test system: NCI-H226 lung
HCC-2998 colon = test system: HCC-2998 colon
MALME-3M melanoma = test system: MALME-3M melanoma
MCF7 breast = test system: MCF7 breast
SK-MEL-2 melanoma = test system: SK-MEL-2 melanoma
HS 578T breast = test system: HS 578T breast
A498 renal = test system: A498 renal
UO-31 renal = test system: UO-31 renal
T-47D breast = test system: T-47D breast
DU-145 prostate = test system: DU-145 prostate
NCI-H460 lung = test system: NCI-H460 lung
SF-268 CNS = test system: SF-268 CNS
MDA-MB-435 = test system: MDA-MB-435
SNB-75 CNS = test system: SNB-75 CNS
SF-539 CNS = test system: SF-539 CNS
HOP-92 NSCLC = test system: HOP-92 NSCLC
OVCAR-4 ovarian = test system: OVCAR-4 ovarian
SK-OV-3 ovarian = test system: SK-OV-3 ovarian
U251 CNS = test system: U251 CNS
MDA-MB-231 breast = test system: MDA-MB-231 breast
SNB-19 CNS = test system: SNB-19 CNS
M14 melanoma = test system: M14 melanoma
UACC-62 melanoma = test system: UACC-62 melanoma
OVCAR-3 ovarian = test system: OVCAR-3 ovarian
NCI-H522 lung = test system: NCI-H522 lung
NCI/ADR-RES ovarian = test system: NCI/ADR-RES ovarian
SN12C renal = test system: SN12C renal
UACC-257 melanoma = test system: UACC-257 melanoma
SF-295 CNS = test system: SF-295 CNS
IGROV1 ovarian = test system: IGROV1 ovarian
NCI-H23 lung = test system: NCI-H23 lung
HCT-15 colon = test system: HCT-15 colon
MOLT-4 leukemia = test system: MOLT-4 leukemia
786-0 renal = test system: 786-0 renal
HL-60(TB) leukemia = test system: HL-60(TB) leukemia
LOX IMVI melanoma = test system: LOX IMVI melanoma
MDA-N = test system: MDA-N
ACHN renal = test system: ACHN renal

Measured: TGI

CC(=O)OC(=C(C#N)C#N)c1nccnc1C(=O)O
> 100 µM: KM12 colon | EKVX NSCLC | HCT-116 colon | COLO 205 colon | SW-620 colon | A549 NSCLC | SK-MEL-28 melanoma | RXF 393 renal | BT-549 breast | K-562 leukemia | OVCAR-5 ovarian | OVCAR-8 ovarian | PC-3 prostate | CAKI-1 renal | RPMI-8226 leukemia | SR leukemia | HT29 colon | SK-MEL-5 melanoma | NCI-H226 lung | HCC-2998 colon | MALME-3M melanoma | MCF7 breast | SK-MEL-2 melanoma | HS 578T breast | A498 renal | UO-31 renal | T-47D breast | DU-145 prostate | NCI-H460 lung | SF-268 CNS | MDA-MB-435 | SNB-75 CNS | SF-539 CNS | HOP-92 NSCLC | OVCAR-4 ovarian | SK-OV-3 ovarian | U251 CNS | MDA-MB-231 breast | SNB-19 CNS | M14 melanoma | UACC-62 melanoma | OVCAR-3 ovarian | NCI-H522 lung | NCI/ADR-RES ovarian | SN12C renal | UACC-257 melanoma | SF-295 CNS | IGROV1 ovarian | NCI-H23 lung | HCT-15 colon | MOLT-4 leukemia | 786-0 renal | HL-60(TB) leukemia | LOX IMVI melanoma | MDA-N | ACHN renal
